One experiment concerns NO. In kind it is cell-based, Murine. The note with it: 10 μM. As for the experimental part:
After 2 days in culture the medium was replaced by phenol-red free RPMI 1640 medium supplemented with 0.5 mM arginine and 2% FCS followed by the addition of the indicated stimuli. TTL3, TTL1, LT-1-45, LT-1-85 and formula (IIB-A1) were added to cells at the final concentration of 10 μM for 15 min. DMSO was used as a control. Cells were then stimulated with 200 ng/ml of LPS and 20 units/ml of IFNγ for 18 hr. NO release was measured as the accumulation of nitrite and nitrate in the incubation medium (phenol-red free). Nitrate was reduced to nitrite with nitrate reductase and was determined spectrophotometrically with Griess reagent. To determine the protein levels of COX-2 and NOS-2, cells (1.5×10^6) were washed with PBS and collected by centrifugation. Cell pellets were homogenized with 100 μl of buffer A (10 mM Hepes; pH 7.9, 1 mM EDTA, 1 mM EGTA, 100 mM KCl, 1 mM dithiothreitol, 0.5 mM phenylmethylsulfonyl fluoride, 2 μg/ml aprotinin, 10 μg/ml leupeptin, 2 μg/ml Nα-p-tosyl-L-lysine chloromethyl ketone, 5 mM NaF, 1 mM Na3VO4, 10 mM Na2MoO4). After 10 min at 4° C., Nonidet P-40 was added to reach a 0.5% concentration. The tubes were gently vortexed for 15 sec and centrifuged at 8,000×g for 15 min. The supernatants were stored at −80° C. until use. Protein content was assayed using the Bio-Rad protein reagent. Protein extracts were separated by 10% SDS-polyacrylamide gel electrophoresis. The gels were blotted onto a Hybond P membrane and then incubated with appropriate primary antibodies: anti-NOS-2 or anti-cyclooxygenase-2. Antibody against β-actin was used as a control to confirm the loading of each sample. […] Different exposure times of the films were used to ensure that bands were not saturated. Quantification of the films was performed by laser densitometry.

The test system of a further experiment is RPMI 8226 cells. Briefly: cell growth inhibition, RPMI 8226, Resazurin, 1% FBS. The format is cell-based, Human. The settings on record: 48 hr of drug exposure. As for the experimental part: Human prostate adenocarcinoma (PC-3; CRL-1435), multiple myeloma (RPMI 8226; CCL-155) and embryonic kidney (HEK-293; CRL-1573) cells were all purchased from ATCC and maintained in appropriate culture media. The cells were cultured in an incubator at 37° C. in 5% CO2 and 95% humidified air.
For cell growth inhibition assays, PC-3 and HEK-293 cells were seeded at 5×10^3 and 1.5×10^3 cells/well respectively in 90 μl media containing 1% (v/v) FBS into 96 well (Corning; 3904) black-walled, clear-bottom tissue culture plates and the plates were incubated overnight to allow cells to establish and enter log phase growth. RPMI 8226 cells were seeded at 2×10^4 cells/well respectively in 90 μl media containing 1% (v/v) FBS into 96 well plates on the day of the assay. 4 mg/ml stock solutions of the compounds were prepared in 100% DMSO and stored at −20° C. The compounds were serially diluted and added in triplicate to the test wells. LT-1-85 was tested at concentrations ranging from 27 μM to 8.6 nM. Concentrations ranging from 30 μM to 9.7 nM were tested for CC-3-13P. Formula (IIB-A1) was tested at concentrations ranging from 26 μM to 8.4 nM. The plates were returned to the incubator for 48 hours. The final concentration of DMSO was 0.25% in all samples.
Following 48 hours of drug exposure, 10 μl of 0.2 mg/ml Resazurin in Mg2+, Ca2+ free phosphate buffered saline was added to each well and the plates were returned to the incubator for 3-6 hours. Since living cells metabolize Resazurin, the fluorescence of the reduction product of Resazurin was measured using a Fusion microplate fluorometer (Packard Bioscience) with λex=535 nm and λem=590 nm filters. Resazurin dye in medium without cells was used to determine the background, which was subtracted from the data for all experimental wells. […] Where the maximum inhibition of cell growth was less than 50%, an EC50 value was not determined. The data in Table 25 summarize the growth inhibitory effects of LT-1-85, CC-3-13P and formula (IIB-A1) against HEK-293, PC-3 and RPMI 8226 cells. The EC50 values indicate that LT-1-85 and CC-3-13P are cytotoxic against HEK-293, PC-3 and RPMI 8226 cells. Formula (IIB-A1) is cytotoxic against RPMI 8226 cells.
(In general: The colour change of resazurin is a common sign of viable cells or microbes.)

A further experiment deals with NIK (Homo sapiens, UniProt Q99558). In kind it is biochemical. The note with it: for inhibition of the NIK kinase activity: transfected cells stimulated with LPS/IFNγ in the presence of compound. As for the experimental part:
The tubes were gently vortexed for 15 s and centrifuged at 8000×g for 15 min. The supernatant (1 ml) was pre-cleared, and NIK was immunoprecipitated with 1 μg of anti-myc Ab. After extensive washing of the immunoprecipitate with buffer A, the pellet was resuspended in kinase buffer (modified buffer A containing 0.1 mM EDTA, 5 mM MgCl2 and 10 nM okadaic acid). Kinase activity was assayed in 100 μl of kinase buffer containing 100 ng of immunoprecipitate, 50 μM [γ-^32P]ATP (0.5 μCi) and 100 ng of MBP as substrate.

In experiment [1] the test system is D-GalN/LPS endotoxic shock. Briefly: lethality induced by D-GalN/LPS in mice. In kind it is in vivo, BALB/c mice. The settings on record: 5 μmol/kg i.p. 1 hour prior to D-GalN/LPS. On the procedure:
Male BALB/c mice, 8 to 10 weeks old were induced an endotoxic shock. The lethal injury was produced by an intraperitoneal (i.p.) injection of LPS (2 μg/kg) in combination with D-GalN (800 mg/kg). 5 μmol/kg of TTL3 or formula (IIB-A1) were administered by i.p. injection (0.5 ml) 1 hour prior to the challenge of D-GalN/LPS. Saline was given to the control animals. The lethality was monitored until 24 h after the administration of D-GalN/LPS.

The structures appear in SMILES notation. Entries after “also recorded” stand apart in the source; their conditions may differ.

Chain of NIK (Q99558 whole entry): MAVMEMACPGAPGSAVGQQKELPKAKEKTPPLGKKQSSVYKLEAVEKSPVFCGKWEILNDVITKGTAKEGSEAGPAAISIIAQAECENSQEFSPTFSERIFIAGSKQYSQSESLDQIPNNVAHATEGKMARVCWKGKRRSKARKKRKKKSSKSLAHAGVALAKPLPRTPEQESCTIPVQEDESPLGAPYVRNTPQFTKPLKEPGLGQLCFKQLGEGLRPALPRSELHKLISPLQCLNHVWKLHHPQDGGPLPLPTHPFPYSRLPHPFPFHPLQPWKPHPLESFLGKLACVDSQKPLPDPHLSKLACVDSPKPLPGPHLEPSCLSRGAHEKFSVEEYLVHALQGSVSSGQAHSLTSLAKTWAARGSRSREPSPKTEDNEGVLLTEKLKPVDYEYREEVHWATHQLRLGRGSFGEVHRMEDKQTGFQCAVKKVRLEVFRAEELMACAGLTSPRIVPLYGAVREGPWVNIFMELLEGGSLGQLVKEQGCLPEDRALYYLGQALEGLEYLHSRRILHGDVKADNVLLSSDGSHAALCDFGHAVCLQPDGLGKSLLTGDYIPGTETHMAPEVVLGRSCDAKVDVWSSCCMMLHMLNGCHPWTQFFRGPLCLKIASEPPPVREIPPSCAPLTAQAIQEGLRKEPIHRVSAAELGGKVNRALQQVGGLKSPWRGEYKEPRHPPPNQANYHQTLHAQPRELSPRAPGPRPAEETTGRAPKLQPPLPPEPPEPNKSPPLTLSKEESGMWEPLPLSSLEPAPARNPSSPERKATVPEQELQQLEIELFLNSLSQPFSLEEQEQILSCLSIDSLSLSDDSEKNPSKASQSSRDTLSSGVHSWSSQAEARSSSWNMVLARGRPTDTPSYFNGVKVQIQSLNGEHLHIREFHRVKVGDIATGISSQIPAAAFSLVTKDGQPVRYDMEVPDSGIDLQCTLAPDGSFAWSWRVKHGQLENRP

By EC50 is commonly meant the concentration needed to bring the measured effect to its halfway point. The low end stands for a more potent agent, the high end for a less potent agent. For `C=C[C@@]1(C)CCC=C2[C@H]1CC[C@@H]1[C@](C)(C(=O)N3CCOCC3)CCC[C@@]21C` [LT-1-85], in the experiment with NO, the “synthesis of NO induced by LPS/IFNγ” value was “also reduced”. Besides, the EC50 with RPMI 8226 cells is 13 µM; in the experiment with RPMI 8226 cells (Homo sapiens, RPMI-8226, 48 h) it was 14 µM.
With `C=C[C@@]1(C)CCC=C2[C@H]1CC[C@@H]1[C@](C)(C(=O)NC3CCCCC3)CCC[C@@]21C` [Formula (IIB-A1), N-Cyclohexylamide Derivative of TTL], the “inhibition of the NIK kinase activity” value on NIK is 70%. The “synthesis of NO induced by LPS/IFNγ” value in the experiment with NO was “also reduced”. Besides, the results for the “protection against lethality / survival time” value in experiment [1] and in experiment [1] (listed as formula (IIB-A1)) were “delay D-GalN/LPS lethality” and “extending three folds the survival time”, respectively. The compound further registered an EC50 in the experiment with RPMI 8226 cells (Homo sapiens, RPMI-8226, 48 h) of 21 µM.
For the compound `C=C[C@@]1(C)CCC=C2[C@H]1CC[C@@H]1[C@](C)(C(=O)OC)CCC[C@@]21C` [TTL3], the “inhibition of the kinase activity of NIK” value against NIK (1 μM directly added to the in vitro NIK kinase assay) is given as 48%. In addition, the “inhibition of the NIK kinase activity” value at NIK is listed as 70%. The “synthesis of NO induced by LPS/IFNγ” value with NO was “also reduced”. The “protection against lethality / survival time” value in experiment [1] is given as “extending three folds the survival time; also recorded: delay D-GalN/LPS lethality”.

The values above are taken from US7893299B2, “Interleukin-1 and tumor necrosis factor-αmodulators; syntheses of such modulators and methods of using such modulators” (Nereus Pharmaceuticals, Inc., priority 2005, dated 2011).
